Results reported in US12653799B2, “Compositions and methods for treating Alzheimer's disease” (ELEANORE BENNETT CHARITABLE TRUST #2, priority 2021, dated 2026).
Entries after “also recorded” stand apart in the source; their conditions may differ.

Key:
[1] = target: T1, PDK-Akt activation sequence (recombinant PDK-1 and Akt-1) (Homo sapiens, UniProt O15530); assay: In vitro drug screen of PS48-family compounds: PDK-1/Akt-1 activation sequence inhibited by Aβ42 ADDL oligomers (western readout); format: biochemical; conditions: for potency relative to PS48: based on Table 1 data; for fraction of control activity: compound 10 μM; for GSK peptide and Akt T308 phosphorylations, Westerns of in vitro reaction mixture (FIG. 6A): compared to PS48
T1 construct: purchased Amsbio
T1 sequence (O15530 1-556): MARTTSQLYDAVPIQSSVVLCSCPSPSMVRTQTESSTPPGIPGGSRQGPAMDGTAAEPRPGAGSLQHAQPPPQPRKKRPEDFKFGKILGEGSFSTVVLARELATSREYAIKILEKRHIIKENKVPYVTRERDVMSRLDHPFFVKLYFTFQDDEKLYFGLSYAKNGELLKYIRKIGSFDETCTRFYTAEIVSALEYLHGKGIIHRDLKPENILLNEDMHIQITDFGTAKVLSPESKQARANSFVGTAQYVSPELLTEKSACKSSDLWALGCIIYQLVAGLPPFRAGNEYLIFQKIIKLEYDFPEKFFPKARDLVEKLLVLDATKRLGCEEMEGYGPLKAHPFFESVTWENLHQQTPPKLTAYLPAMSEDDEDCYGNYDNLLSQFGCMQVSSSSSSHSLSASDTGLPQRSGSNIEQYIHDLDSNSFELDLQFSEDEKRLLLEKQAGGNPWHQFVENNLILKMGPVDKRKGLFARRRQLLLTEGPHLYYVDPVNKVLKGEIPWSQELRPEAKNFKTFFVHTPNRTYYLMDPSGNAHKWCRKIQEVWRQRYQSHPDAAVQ
Experimental: Incubation proceeded for 15 min. GSK-tide (Cell Signaling) was then added and the reaction allowed to continue for 20 min more before termination in sample buffer and fractionation on SDS gel. […] The in vitro results were validated using a cell culture-based assay, as above. […] Compound was added for 12 hrs. The cells were stimulated with insulin before harvest.
Where quantified, experiments were carried out in triplicate unless otherwise stated. Mean, standard errors and significance levels using Student's t-test were computed in Excel or Prism. […] Western signal intensities were all quantified by densitometry. […] Therefore, where both endpoints were evaluated, normalized values were both included in the quantification as indicated.
Drug screening experiments were performed using a focused library of novel compounds that were synthesized using PS48 as the starting scaffold. Two generations were created based on structure-activity relations (SAR) in an attempt to optimize performance.

[2] = test system: Akt phosphorylation in Aβ42-expressing SH-SY5Y cells; assay: Akt activation in Aβ42-expressing cells (adenovirus/doxycycline, insulin-stimulated); format: cell-based; conditions: SH-SY5Y; for Phospho-Akt levels (T308 and S473 pooled) in cell-based model of Aβ toxicity, verification of analogs: compound 1 μM, insulin 40 nM last 20 minutes
Experimental: Adv TetOn and TRE-Aβ42 viruses were described previously (Magrane et al., 2005). […] Insulin (10 or 40 nM) was added in the last 20-30 min before harvest. […] Cell extracts were prepared in lysis buffer [20 mM Tris-HCl (pH 7.5), 150 mM NaCl, 1 mM EDTA, 1 mM Na3VO4, 1% NP-40, 10% Glycerol, 1 mM Na4P2O7, 1 μg/ml Leupeptin, 1 μg/ml Pepstatin A, 1 μg/ml Aprotinin, 0.1 mM phenylmethylsulfonyl fluoride, and protease inhibitor cocktail (Roche)] and were stored at −80° C. until use.
Whole-cell extracts were used directly for western blot analysis (20˜30 μg). Extracts from cultured cells prepared in lysis buffer, were diluted into Laemmli sample buffer, heated (95° C., 10 min), cleared by centrifugation, separated on SDS-PAGE and transferred to PVDF membrane (Immobilon-P; Millipore). Membranes were blocked in TBS containing 0.3% Tween-20 and 5% (wt/vol) non-fat dry milk. After incubation with primary antibodies (18 hr at 4° C. in buffer containing 5% bovine serum albumin (BSA) and 0.05% NaN3), blots were washed and incubated in horseradish peroxidase (HRP)-conjugated secondary antibodies (1:2000 dilution; Cell Signaling). Signals were detected using ECL reagents and quantified using a Kodak Image Station 4000R.
[…]. […] […]. […] […].

[3] = test system: LTP in rat prefrontal cortical slices; assay: Long term potentiation (LTP) in acute prefrontal cortical slices perfused with Aβ42 oligomers; format: cell-based; conditions: Aβ42 ADDLs 0.5 μM; PS48 10 μM, at the 1-hour mark after Aβ42 application
Experimental: FIG. 3A. […] LTP was measured as % baseline excitatory postsynaptic potential (EPSP) amplitudes. […] Washout restored LTP (4).
Minor modifications were made to previous published procedures (Marshall et al., 2017; Molina-Luna et al., 2009). Deeply anesthetized rats (pentobarbital, 50 mg/kg) were decapitated, their brains quickly removed and immersed in cold (5-7° C.), oxygenated (95% O2/5% CO2) artificial cerebrospinal fluid (ACSF) containing: 126 mM NaCl, 3 mM KCl, 1.25 mM NaH2PO4, 1 mM MgSO4, 2 mM CaCl2, 26 mM NaHCO3, 10 mM dextrose. […] Control treatment was DMSO in ACSF (artificial cerebrospinal fluid, 20 μM bicuculline). Extracellular postsynaptic field potentials were recorded using an AxoClamp2B amplifier (Axon instruments) and EX1 differential amplifier (Dagan), and digitized at 10 kHz. Data was acquired using Igor Pro (Wave Metrics) and Neuromatic (neuromatic.thinkrandom.com). The stimulus intensity eliciting 50% of the maximum amplitude (˜32 μA) was used for all measurements before and after LTP induction. Baseline amplitudes were recorded for 20-30 minutes using single field stimuli applied every 30 sec to layer IV-V using concentric bipolar electrodes. Following a stable baseline period, LTP was induced by two sets of high-frequency stimulation (HFS) at 100 Hz, 60 μA (twice stimulus intensity), for 1 sec, 20 sec apart. Extracellular postsynaptic field potentials were measured from layer II-III using glass micropipettes filled with 0.9% NaCl. The amplitude rather than the slope of evoked FPs was used as a measure of the population excitatory synaptic response because in the neocortex the initial slope was contaminated by antidromic stimulation. LTP values were expressed as percentage of mean baseline EPSP±SEM. Paired two-tailed t-tests were used for statistical analysis.
LTP was measured as % baseline excitatory postsynaptic potential (EPSP) amplitudes. […] Washout restored LTP.

SH-SY5Y cells = assay: Cell viability, MTT assay, Aβ42-expressing SH-SY5Y cells; conditions: pretreatment before doxycycline; PS48 10 μM or insulin 100 nM; harvested at 48 hrs
Experimental: FIG. 2A. Cell viability as measured by MTT assay.
SH-SY5Y cells were washed twice in warm Dulbecco's phosphate-buffered saline (DPBS) and incubated in 1 ml DMEM containing 0.5 mg (3-[4,5-dimethylthiazol-2-yl]-2,5-diphenyltetrazolium bromide) (MTT or WST; Molecular Probes, Eugene, OR) for 2-3 h at 37° C. and 5% CO2. The medium was aspirated and the cells were washed twice with pre-warmed DPBS. The formazan salts were dissolved in 1 ml pure ethanol before use. Cells were homogenized by repetitive pipetting and centrifuged for 5 min at 4500 rpm, and the supernatant collected. Absorbance was read against an ethanol blank at 590 nm.

N2a neural cultures = assay: WST assay toxicity in N2a neural cultures; format: cell-based; conditions: result not shown
Source text: . […]. Examples of in vitro assay performance are shown in FIG. 6A and FIG. 6B for compound 508-1-25 (generation 1) and compound 508-1-68 (generation 2). […] The new “hit” compounds also had no direct or indirect effects on potential downstream off-targets such as mTOR (protein levels and phosphorylation status, results not shown). […]

[4] = first generation PS48 analogs, Aβ42 ADDL 10 μM, Aβ 42 alone = 0.62 (.16), control normalized to 1.00

| Molecule | potency relative to PS48 [1] | fraction of control activity [1, 4] | GSK peptide and Akt T308 phosphorylations, Westerns of in vitro reaction mixture (FIG. 6A) [1] | Phospho-Akt levels (T308 and S473 pooled) in cell-based model of Aβ toxicity, verification of analogs [2] | further results |
| --- | --- | --- | --- | --- | --- |
| O=C(O)c1cn(Cc2ccc(OC(F)(F)F)cc2)c2ccccc12 [508-1-31] | increase in potency over PS48 | 0.95 (.11) | – | – | – |
| COC(=O)CNC(=O)/C=C(\CCc1ccc(Cl)cc1)c1ccccc1 [508-1-68] | increase in potency over PS48 | – | restored activation as well as or better than PS48 | correcting the inhibition of Akt phosphorylation; also recorded: active | fraction of control activity ([1]; second generation PS48 analogs, Aβ 42 alone = 0.72 (.05)): 1.02 (.06) |
| O=C(O)/C=C(\CCc1ccc(Cl)cc1)c1ccccc1 [PS47, (E)-5-(4-chlorophenyl)-3-phenylpent-2-enoic acid] | – | – | – | – | LTP (% baseline EPSP amplitude) inhibited by Aβ42 oligomers [3]: no effect |
| insulin: Human insulin, recombinant | – | – | – | – | Akt activation (pT308) in β-amyloid-expressing cells ([2]; PS48 1 μM or insulin 100 nM added 2 hrs before doxycycline, insulin 40 nM 20 min prior to harvest): restored basal Akt activation levels; cell viability (MTT) of amyloid-bearing cells (SH-SY5Y cells): reverted cells to basal condition or better |
| O=C(O)CNC(=O)/C=C(/CCc1ccc(Cl)cc1)c1ccccc1 [508-1-25] | increase in potency over PS48 | 0.99 (.07) | restored activation as well as or better than PS48 | correcting the inhibition of Akt phosphorylation | Phospho-Akt levels (T308 and S473 pooled) in cell-based model of Aβ toxicity, verification of analogs ([2]; listed as 501-1-25): active; LD50 (N2a neural cultures): 350 µM |
| O=C(/C=C(/CCc1ccc(Cl)cc1)c1ccccc1)NCCO [508-1-7] | increase in potency over PS48 | 0.97 (.10) | restored activation as well as or better than PS48 | – | – |
